Experimental data published in patent publication US12649008B2, “Peptide receptor radionuclide therapy” (The Regents of the University of California, priority 2020, dated 2026).
“Also recorded” adds a separate entry of the source.

How the values were obtained:
[1] = test system: locally advanced, unresectable or metastatic pancreatic adenocarcinoma; experiment: Single institution pilot study, 3+3 dose escalation; format: in vivo, human; details: individual patients
Text: Patients first underwent a single microdose of [^68Ga]Ga DOTA-5G PET/CT to assess eligibility for the [^177Lu]Lu DOTA-ABM-5G therapy. Only patients with sufficient lesion uptake (any visualized lesion with SUVmax>2-fold above normal lung or liver) were offered therapy with [^177Lu]Lu DOTA-ABM-5G. The study was designed as a 3+3 dose escalation study with [^177Lu]Lu DOTA-ABM-5G. The treatment regimen consisted of one dose of [^177Lu]Lu DOTA-ABM-5G. The 3+3 design included three patients for the first activity level group (25 mCi) (see Table 4, below). Dose-limiting toxicity (DLT) is defined as any treatment related AE≥grade 3 (G3). In addition, the radiation dose to the kidneys must not exceed 23 Gy and the dose to the bone marrow must not exceed 1.5 Gy. If no DLT occurs within 30 days (after the third patient), 3 patients were then enrolled at the next dose level. Should a patient not be available for complete evaluation of treatment related toxicity within the 30 day DLT window due to non-treatment related issues, the patient was replaced for the purpose of DLT assessment at the same dose level. If DLT attributable to the study treatment is experienced in exactly ⅓ subjects in the first course, 3 more patients (for a total of 6) are treated at that dose level. The dose was escalated if no additional DLT is observed at the expanded dose level (i.e., ⅙ with DLT). Escalation stops as soon as two or more subjects experience DLT attributable to the study drugs. The highest dose (200 mCi limit) with no more than one DLT out of six patients is recommended for Phase II. The radiation dose to the kidneys must not exceed 23 Gy and the dose to the bone marrow must not exceed 1.5 Gy.
Patients deemed eligible based on the [^68Ga]Ga DOTA-5GPET/CT were scheduled to receive one dose of the [^177Lu]Lu DOTA-ABM-5G therapy within 4 weeks (±7 days) of the [^68Ga]Ga DOTA-5G scan. […] For renal protection purpose, a 4-hour co-infusion of an amino acid solution (containing L-lysine [between 18 g and 24 g] and L-arginine [between 18 g and 24 g] was started 30 minutes prior to the infusion of [^177Lu]Lu DOTA-ABM-5G and continued at a constant rate (250 cc/hr) for a total of 4 hours. The patient was monitored for one hour after completion of the amino acid solution infusion. Administration of the amino acid solution before, during and after the [^177Lu]Lu DOTA-ABM-5G therapy was based on experience with Lu-177 DOTATATE to flush the radionuclide through the proximal tubules and decrease the radiation dose to the kidneys. […]
The biodistribution and dosimetry was evaluated using nuclear imaging at 1 day and 7 days post-infusion of [^177Lu]Lu DOTA-ABM-5G. […]

αvβ6 (+) BxPC-3 tumors = experiment: In vivo targeted radionuclide therapy; design: species or system mice
Experimental: (§1) Female nu/nu nude mice (6-8 weeks old) were purchased from Charles River Laboratories (Wilmington, MA, USA) and handled according to the UC Davis Institutional Animal Care and Use Committee. BxPC-3 cells (5×10^6) in 100 μl 1:1 GFR-Matrigel: serum-free RPMI were implanted subcutaneously into the left shoulder flank and allowed to grow for approximately 2 weeks (therapy study) and 3 weeks (0.5-1 cm in diameter, for imaging and biodistribution studies). All cells were evaluated with flow cytometry before injection to confirm integrin expression levels. Food and water were available ad libitum.
For in vivo targeted radionuclide therapy, mice were implanted subcutaneously with BxPc-3 tumor cells 14 days before start of treatment. Mice were randomly chosen and divided into four treatment groups: Control Saline (Group 1, n=5); Control Peptide DOTA-ABM-5G (Group 2, n=6); 1×74 MBq [^177Lu]Lu DOTA-ABM-5G (Group 3, n=10); and 2×37 MBq [^177Lu]Lu DOTA-ABM-5G (Group 4, n=7). Average tumor volume at the start of the treatment was 14-218 mm^3. Group 2 received 20 μg of peptide DOTA-ABM-5G per mouse as a control. Group 3 received 74 MBq on day 14 post-tumor implant (treatment day 0), and Group 4 received two doses of 37 MBq on day 14 and 21 post-tumor implant (treatment days 0 and 7), at a specific activity of 18.5 MBq/nmol. Body weights and tumor volumes were measured the day before treatment, and twice a week post-treatment throughout the study. Tumor volume (TV) was determined according to the equation TV=(π/6)*L*W*H, where L is the longest axis, W is the axis perpendicular to L and H is perpendicular to the plane of L and W. End point determination was based on the longest axis of TV exceeding 2 cm, active ulceration, or compromised health of the mouse, including >20% loss of body weight from the start of the study. Survival curves are depicted as a Kaplan-Meier plot, using start of treatment as day 0.

BxPC-3 (αvβ6 (+)) tumors = experiment: Blocking study (cold peptide 10 min before radiotracer), biodistribution; format: in vivo, mice; details: 4 h p.i.
Experimental: as §1
(§2) For blocking studies, respective non-chelated cold peptide (30 mg/kg, 10 mg/mL (DOTA-5G) and 48 mg/kg, 16 mg/mL (DOTA-ABM-5G) solution in PBS) was injected 10 min. before the formulated radiotracer. At each time point, the mice (n=3/time point/radiotracer) were anesthetized and sacrificed. The tissues were collected, rinsed with PBS, and the radioactivity of each measured with a gamma counter. Radioactivity concentrations were calibrated, decay-corrected, and expressed as percent of injected dose per gram of tissue (% ID/g).

[2] = as above; format: in vivo, mice; details: female, nu/nu nude, mouse, BxPC-3 tumor, iv, total radioactivity; 4 h p.i.; DOTA-ABM-5G 48 mg/kg 10 min before
Experimental: as §1, §2

CNC(=O)C(CCCCNC(=O)C(CC(=O)O)NC(=O)CCCNC(=O)CCCc1ccc(I)cc1)NC(=O)CN1CCN2CCN3CCN(CC1)CC(=O)[O][177Lu]([O]C(=O)C2)[O]C(=O)C3 (stereo not shown) [[^177Lu]Lu DOTA-ABM-5G]
Current status ([1]; Dose Level 1 (25 mCi)): alive, increase in metastatic; also recorded: alive, stable disease; also recorded: Deceased (patient deteriorated
Renal function over 90 days ([1]; Dose Level 1 (25 mCi)): no change
Current status ([1]; Dose Level 2 (50 mCi)): alive, no evidence of liver; also recorded: alive
Renal function over 90 days ([1]; Dose Level 2 (50 mCi)): no change
median survival post-treatment (αvβ6 (+) BxPC-3 tumors; Group 3, 1×74 MBq): 82 days
median survival post-treatment (αvβ6 (+) BxPC-3 tumors; Group 4, 2×37 MBq (days 0 and 7)): 113 days
adverse events and weight loss during the study (αvβ6 (+) BxPC-3 tumors; any group, 120 days): No adverse events and weight loss
adverse reaction to treatment in blood chemistry (αvβ6 (+) BxPC-3 tumors; mouse, in vivo): no adverse reaction
change of BxPC-3 tumor uptake by blocking (Δ) (BxPC-3 (αvβ6 (+)) tumors): −42%
tissue uptake at 4 h [2]: 4.12 %ID/g
